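Results reflect a 48-hour exposure of cells in 96-well plates to compound at five concentrations. Here, GI50 denotes the concentration required for 50% inhibition of growth.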 Calls of active or inactive are those of the source. Rule as the data show it: active = GI50 up to about 1.1 µM and inactive = higher.
Tests used:
Experiment in all cases: NCI-60 cell line screen, 48 h
[1] = tested on: DLD-1
[2] = tested on: DMS-114
[3] = tested on: DMS-273
[4] = tested on: HOP-18
[5] = tested on: KM-20L2
[6] = tested on: SNB-78
[7] = tested on: XF498
[8] = tested on: LXFL 529
[9] = tested on: RXF 631

| SMILES | GI50 [1] | GI50 [2] | GI50 [3] | GI50 [4] | GI50 [5] | GI50 [6] | GI50 [7] | GI50 [8] | GI50 [9] |
| --- | --- | --- | --- | --- | --- | --- | --- | --- | --- |
| CCCCCCCCOC(=O)c1cc([N+](=O)[O-])c(Sc2[nH]cnc3ncnc2-3)c([N+](=O)[O-])c1 | 1.11 µM (active) | 0.507 µM (active) | 0.425 µM (active) | 1.65 µM (inactive) | 1.99 µM (inactive) | 2.47 µM (inactive) | 0.67 µM (active) |  |  |
| COc1cccc2c1C(=O)c1c(O)c3c(c(O)c1C2=O)C[C@@](O)(C(=O)CO)C[C@@H]3OC1CC(N(C)C)C(O)C(C)O1 (stereo partly drawn) | < 0.0157 µM (active) |  | < 0.0106 µM (active) | 0.0805 µM (active) | 0.0367 µM (active) | 0.0453 µM (active) | 0.0149 µM (active) | < 0.0174 µM (active) |  |
| CCOc1ccc(/N=N/c2c(-c3ccccc3)nn(C(=O)CC(=O)Nc3ccccc3Cl)c2-c2ccccc2)cc1 | 45.2 µM (inactive) | 23 µM (inactive) | 18.3 µM (inactive) | > 100 µM (inactive) | 56.4 µM (inactive) | 51.4 µM (inactive) | 28.4 µM (inactive) | 76 µM (inactive) |  |
| Clc1cccc(C2SCc3nc4ccccc4n32)c1Cl (stereo not drawn) | 16.6 µM (inactive) | 20.7 µM (inactive) | 15.9 µM (inactive) | 18.1 µM (inactive) | 19.4 µM (inactive) | 38.1 µM (inactive) | 16 µM (inactive) | 15.9 µM (inactive) |  |
| COc1c(-c2ccccc2)nc2ccc(Oc3ccccc3)nn12 | 48.3 µM (inactive) | > 50.4 µM (inactive) | > 57.1 µM (inactive) | > 45.5 µM (inactive) | > 75 µM (inactive) | > 60 µM (inactive) | 23.8 µM (inactive) | > 38.3 µM (inactive) |  |
| CC(NC(=O)c1ccccc1)C(=O)N(Cc1ccccc1)Cc1ccccc1 (stereo not drawn) | 31.4 µM (inactive) | 19 µM (inactive) | 21.3 µM (inactive) |  | 26.2 µM (inactive) | 27.7 µM (inactive) |  | 18.4 µM (inactive) |  |
| O=C(Cc1nc2ccccc2s1)C(=O)Nc1ccccc1C(F)(F)F | > 100 µM (inactive) | > 100 µM (inactive) | > 100 µM (inactive) | > 100 µM (inactive) | > 100 µM (inactive) | > 100 µM (inactive) | > 100 µM (inactive) | > 100 µM (inactive) |  |
| CCOC(=O)C1C(=O)C(C(=O)OCC)C(c2ccccc2)N(C)C1c1ccccc1 (stereo not drawn) | > 100 µM (inactive) | 56 µM (inactive) | > 100 µM (inactive) |  | > 100 µM (inactive) | > 100 µM (inactive) |  | > 100 µM (inactive) | > 100 µM (inactive) |
| Nc1nc2c3nc(Nc4ccccc4)sc3nc(=O)n2c2sc(Nc3ccccc3)nc12 | > 100 µM (inactive) |  | > 100 µM (inactive) | > 100 µM (inactive) | > 100 µM (inactive) | > 100 µM (inactive) | > 100 µM (inactive) | > 100 µM (inactive) |  |
| N=C1N(c2ccccc2)C(=O)C23CCCC2C13N1CCOCC1 (stereo not drawn) | > 100 µM (inactive) | > 100 µM (inactive) | > 100 µM (inactive) | > 100 µM (inactive) | > 100 µM (inactive) | > 100 µM (inactive) |  | > 100 µM (inactive) | > 100 µM (inactive) |
| NNC(=S)N/N=C(\CC1OC(=O)c2ccccc21)c1ccccc1O (stereo not drawn) | 44.6 µM (inactive) | 58.1 µM (inactive) | 50.9 µM (inactive) | 94.4 µM (inactive) | 92.5 µM (inactive) | 33 µM (inactive) | 34.2 µM (inactive) | 53.1 µM (inactive) | 26.5 µM (inactive) |

From ChEMBL document CHEMBL1201862, “PubChem BioAssay data set” (2004)
